Results: patent US9681664B2, “Macrocyclic picolinamides as fungicides” (Dow Agrosciences LLC, priority 2012, dated 2017)
Like-named read-outs stand apart in the source and are kept apart here.

Legend:
[1] = test system: Mycosphaerella graminicola; Anamorph: Septoria tritici; experiment: Leaf blotch of wheat (SEPTTR) disease control on wheat seedlings; format: in vivo; conditions: Zymoseptoria tritici, High volume application, 100 ppm
How it was run: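 Wheat seedlings (Yuma, first leaf emerged) sprayed to run-off with compound in acetone/water with 110 ppm Triton X-100, or track-sprayed as EC with 0.1% Trycol 5941. Septoria tritici spores inoculated before or after treatment. Dew chambers, then 20 °C greenhouse. Percent disease control derived from severity (0–100%) relative to untreated plants.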

[2] = test system: Puccinia triticina; Synonym: Puccinia recondite f. sp. tritici; experiment: Wheat brown rust (PUCCRT) disease control on wheat seedlings; format: in vivo; conditions: Puccinia triticina, High volume application, 100 ppm
How it was run: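 Acetone solutions diluted in nine volumes of water with 110 ppm Triton X-100 sprayed to run-off on first-leaf Yuma wheat seedlings (track spray: EC with 0.1% Trycol 5941). Puccinia triticina spores inoculated before or after treatment; overnight dark dew at 22° C., 100% RH, then greenhouse at 24° C. for disease development.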

[3] = test system: Phakopsora pachyrhizi; experiment: Asian soybean rust (PHAKPA) disease control; format: in vivo; conditions: topical, high volume
Method: Technical grades of materials were dissolved in acetone, which were then mixed with nine volumes of water containing 0.011% Tween 20. The fungicide solutions were applied onto soybean seedlings using an automated booth sprayer to run-off. All sprayed plants were allowed to air dry prior to further handling.
Soybean plants (variety Williams 82) were grown in soil-less Metro mix, with one plant per pot. Two weeks old seedlings were used for testing. Plants were inoculated either 3 days prior to or 1 day after fungicide treatments. Plants were incubated for 24 h in a dark dew room at 22° C. and 100% RH then transferred to a growth room at 23° C. for disease to develop. Disease severity was assessed on the sprayed leaves.

[4] = test system: Glomerella lagenarium; Anamorph: Colletotrichum lagenarium; experiment: Cucumber anthracnose (COLLLA) disease control; format: in vivo; conditions: Colletotrichum orbiculare, 24 h, 1 Day Protectant, high volume, read-out: Disease Control COLLLA 1 DP
Method: Technical grades of materials were dissolved in acetone, which were then mixed with nine volumes of water containing 110 ppm Triton X-100. The fungicide solutions were applied onto wheat seedlings using an automated booth sprayer to run-off. All sprayed plants were allowed to air dry prior to further handling. All fungicides were evaluated using the aforementioned method for their activity vs. all target diseases. Wheat leaf blotch and brown rust activity were also evaluated using track spray applications, in which case the fungicides were formulated as EC formulations, containing 0.1% Trycol 5941 in the spray solutions. Cucumber seedlings (variety Bush Pickle) were propagated in soil-less Metro mix, with each pot having one plant, and used in the test when 12 to 14 days old. Test plants were inoculated with an aqueous spore suspension of Colletotrichum lagenarium 24 hr after fungicide treatments. After inoculation the plants were kept in a dew room at 22° C. with 100% relative humidity for 48 hr to permit spores to germinate and infect the leaf. The plants were then transferred to a growth room set at 22° C. for disease to develop. Fungicide formulation, application and disease assessment on the sprayed leaves followed the procedures as described in the Example A.

[5] = 24 h, 1 Day Protectant, read-out: SEPTTR 1DP disease control
[6] = 72 h, 3 Day Curative, read-out: SEPTTR 3DC disease control
[7] = 24 h, 1 Day Protectant, read-out: PUCCRT 1DP disease control
[8] = 72 h, 3 Day Curative, read-out: PUCCRT 3DC disease control
[9] = 24 h, 1 Day Protectant, read-out: Disease Control PHAKPA 1DP

| Structure (SMILES) | melting point | pest or weed control at 100 ppm [1, 5] | pest or weed control at 100 ppm [1, 6] | pest or weed control at 100 ppm [2, 7] | pest or weed control at 100 ppm [2, 8] | pest or weed control at 25 ppm [3, 9] | pest or weed control at 25 ppm ([3]; 72 h, 3 Day Curative, read-out: Disease Control PHAKPA 3DC) | pest or weed control at 100 ppm [4] |
| --- | --- | --- | --- | --- | --- | --- | --- | --- |
| CC(C)CO[C@H]1CCC[C@H](N)C(=O)O[C@@H](C)[C@@H]1OC(=O)C1CC1.Cl | 231 to 235 °C | – | – | – | – | – | – | – |
| CCCO[C@H]1[C@H](C)OC(=O)[C@@H](N)CCC[C@@H]1OCC(C)C.Cl | 226 to 229 °C | – | – | – | – | – | – | – |
| CC(C)CO[C@H]1CCC[C@H](N)C(=O)O[C@@H](C)[C@@H]1OC/C=C/C(F)(F)F.Cl | 236 to 240 °C | – | – | – | – | – | – | – |
| COc1ccc(O[C@H]2CCC[C@H](N)C(=O)O[C@@H](C)[C@@H]2OCC(C)C)cc1.Cl | 198 to 200 °C | – | – | – | – | – | – | – |
| C[C@@H]1OC(=O)[C@@H](N)CCC[C@H](OC2CCCC2)[C@H]1OC1CCCC1.Cl | 246 to 248 °C | – | – | – | – | – | – | – |
| CC(C)CO[C@H]1[C@H](C)OC(=O)[C@@H](N)CCC[C@@H]1OCC(C)C.Cl | 188 to 230 °C | – | – | – | – | – | – | – |
| COc1ccnc(C(=O)N[C@H]2CCC[C@H](OC3CCCC3)[C@@H](OC3CCCC3)[C@H](C)OC2=O)c1OCOC(C)=O [F217] | – | 80 to 100% | 80 to 100% | 80 to 100% | 80 to 100% | 80 to 100% | – | 80 to 100% |

Now from value to molecule, other results behind:

| melting point | Structure (SMILES) | pest or weed control at 100 ppm [1, 5] | pest or weed control at 100 ppm [1, 6] | pest or weed control at 100 ppm [2, 7] | pest or weed control at 100 ppm [2, 8] | pest or weed control at 25 ppm [3, 9] | pest or weed control at 25 ppm ([3]; 72 h, 3 Day Curative, read-out: Disease Control PHAKPA 3DC) | pest or weed control at 100 ppm [4] |
| --- | --- | --- | --- | --- | --- | --- | --- | --- |
| 94 to 95 °C | COc1ccnc(C(=O)N[C@H]2CCC[C@H](OCC(C)C)[C@@H](OCC(C)C)[C@H](C)OC2=O)c1O [F21] | 0 to 80% | 0 to 80% | 80 to 100% | 80 to 100% | – | – | – |
| 108 to 114 °C | COc1ccnc(C(=O)N[C@H]2CCC[C@H](OCC(C)C)[C@@H](OCCCC(F)(F)F)[C@H](C)OC2=O)c1O [F41] | 0 to 80% | 80 to 100% | 80 to 100% | 80 to 100% | – | – | – |
| 89 to 91 °C | COc1ccnc(C(=O)N[C@H]2CCC[C@H](Oc3ccc(F)cc3)[C@@H](Oc3ccc(F)cc3)[C@H](C)OC2=O)c1O [F50] | 80 to 100% | 0 to 80% | 80 to 100% | 80 to 100% | – | – | – |
| 65 to 67 °C | COc1ccnc(C(=O)N[C@H]2CCC[C@H](OCC(C)C)[C@@H](Oc3ccc(F)cc3)[C@H](C)OC2=O)c1O [F55] | 80 to 100% | 80 to 100% | 80 to 100% | 80 to 100% | – | – | – |
| 139 to 141 °C | COc1ccnc(C(=O)N[C@H]2CCC[C@H](Oc3ccc(F)cc3)[C@@H](OCC(C)C)[C@H](C)OC2=O)c1OCOC(C)=O [F63] | 80 to 100% | 80 to 100% | 80 to 100% | 80 to 100% | – | – | – |
| 118 to 120 °C | COc1ccc(O[C@H]2CCC[C@H](NC(=O)c3nccc(OC)c3OCOC(C)=O)C(=O)O[C@@H](C)[C@@H]2OCC(C)C)cc1 [F68] | 80 to 100% | 80 to 100% | 80 to 100% | 80 to 100% | 80 to 100% | – | – |
| 61 to 63 °C | COc1ccnc(C(=O)N[C@H]2CCC[C@H](OC3CCCC3)[C@@H](OC3CCCC3)[C@H](C)OC2=O)c1O [F73] | 0 to 80% | 80 to 100% | 80 to 100% | 80 to 100% | – | – | – |
| 148 to 149 °C | COc1ccnc(C(=O)N[C@H]2CCC[C@H](Oc3ccccc3)[C@@H](OC3CCCC3)[C@H](C)OC2=O)c1OCOC(C)=O [F80] | 80 to 100% | 80 to 100% | 80 to 100% | 80 to 100% | 80 to 100% | 80 to 100% | – |
| 99 to 100 °C | COc1ccnc(C(=O)N[C@H]2CCC[C@H](OC3CCCC3)[C@@H](OCC(C)C)[C@H](C)OC2=O)c1O [F119] | 80 to 100% | 80 to 100% | 80 to 100% | 80 to 100% | – | – | – |
| 43 to 48 °C | COc1ccnc(C(=O)N[C@H]2CCC[C@H](OC3CCCC3)[C@@H](OCCCC(F)(F)F)[C@H](C)OC2=O)c1O [F120] | 80 to 100% | 80 to 100% | 80 to 100% | 80 to 100% | – | – | – |
| 109 to 111 °C | CCCO[C@H]1[C@H](C)OC(=O)[C@@H](NC(=O)c2nccc(OC)c2O)CCC[C@@H]1OCC(C)C [F212] | 0 to 80% | 0 to 80% | 80 to 100% | 80 to 100% | – | – | – |
| 63 to 66 °C | COc1ccnc(C(=O)N[C@H]2CCC[C@H](OCC(C)C)[C@@H](OC(=O)C3CC3)[C@H](C)OC2=O)c1O [F213] | 0 to 80% | 0 to 80% | 80 to 100% | 80 to 100% | – | – | – |
